“Also recorded” adds a separate entry of the source. Like-named read-outs stand apart in the source and are kept apart here.
Experiments:
hCK2α [1] = molecular target: T1, hCK2α (Homo sapiens, UniProt P68400); assay: CK2 phosphorylation assay (P2B substrate, [γ-32P]ATP); assay type: biochemical; design: GST (N); made in house; host or cells: bacteria; conditions: for IC50 / Ki: 20 µM ATP, P2B protein substrate; for IC50: 37 °C, 5 min, read-out: IC50 (µM) ± SD CK2; for Ki: read-out: Ki (µM) ± SD CK2; for inhibition of CK2 stronger than that of Rio1 (fold): CK2 versus Rio1
T1 sequence (P68400 whole entry): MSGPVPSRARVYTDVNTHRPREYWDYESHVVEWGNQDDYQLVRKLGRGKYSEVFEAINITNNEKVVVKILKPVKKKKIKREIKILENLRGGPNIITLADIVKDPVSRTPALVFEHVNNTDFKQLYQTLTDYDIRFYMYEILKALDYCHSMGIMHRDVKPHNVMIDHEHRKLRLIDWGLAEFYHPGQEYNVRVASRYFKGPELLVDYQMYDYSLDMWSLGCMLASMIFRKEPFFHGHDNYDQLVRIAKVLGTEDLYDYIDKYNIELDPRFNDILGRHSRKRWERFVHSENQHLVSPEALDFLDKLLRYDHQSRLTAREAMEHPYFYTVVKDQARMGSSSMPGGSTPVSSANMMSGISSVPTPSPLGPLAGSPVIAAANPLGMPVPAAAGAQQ
Experimental: Recombinant human protein kinase GST-CK2α was produced in bacteria and purified as described elsewhere.
The reaction buffer contained 20 µM [γ-^32P]ATP (specific radioactivity 300–1000 cpm/pmol), 15 mM Mg^2+, 20 mM Tris–HCl pH 7.5, and 6 mM 2-mercaptoethanol.
(§1) The phosphorylation was terminated by addition of SDS/PAGE sample buffer, and proteins were resolved by electrophoresis, followed by Coomassie Brilliant Blue staining. The gels were dried and ^32P-labelled bands of P2B and Rio1 were excised from the gel, and radioactivity was determined in a scintillation counter (MicroBeta, Perkin Elmer) by Cerenkov counting.
(§2) IC50, K i, K m, and V max values were calculated using GraphPad Prism (version 4.0) software.

human Rio1 [2] = molecular target: T2, human Rio1 (Homo sapiens, UniProt Q9BRS2); assay: Rio1 autophosphorylation assay ([γ-32P]ATP); assay type: biochemical; conditions: 0.5 µM ATP; for IC50: 37 °C, 15 min, read-out: IC50 (µM) ± SD Rio1; for Ki: read-out: Ki (µM) ± SD Rio1
T2 construct: Human recombinant kinase Rio1 containing residues 134–494 was expressed and purified as previously reported; made in house
T2 sequence (Q9BRS2 134-494): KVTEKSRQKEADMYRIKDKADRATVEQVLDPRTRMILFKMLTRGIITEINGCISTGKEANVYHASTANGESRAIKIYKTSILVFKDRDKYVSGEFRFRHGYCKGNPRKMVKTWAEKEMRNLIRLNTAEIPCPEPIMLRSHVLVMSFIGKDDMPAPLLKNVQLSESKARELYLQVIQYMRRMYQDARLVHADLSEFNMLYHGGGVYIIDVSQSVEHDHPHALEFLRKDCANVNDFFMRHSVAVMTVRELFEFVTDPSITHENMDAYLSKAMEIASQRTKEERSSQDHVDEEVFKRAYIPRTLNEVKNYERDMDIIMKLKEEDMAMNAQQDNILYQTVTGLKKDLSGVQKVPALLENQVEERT
Experimental: Recombinant human protein kinase GST-CK2α was produced in bacteria and purified as described elsewhere. The plasmid carrying the gene encoding human protein kinase Rio1 (residues […]) was kindly gifted by Professor Nicole LaRonde—LeBlanc (University of Maryland, USA). Human recombinant kinase Rio1 containing residues 134–494 was expressed and purified as previously reported with a few modifications.
In order to determine the autophosphorylation of human Rio1, the enzyme was incubated at 37 °C for 15 min in 50 μl samples each containing 1 pmol of human recombinant Rio1 and an appropriate concentration of tested compound (0.01–50 µM). The reaction buffer contained 0.5 µM ATP, [γ-^32P]ATP (specific radioactivity 300–1000 cpm/pmol), 50 mM NaCl, 10 mM Mg^2+, 50 mM Tris–HCl pH 7.5, and 6 mM 2-mercaptoethanol.
as §1, §2

[3] = tested on: promyelocytic leukemia cell line HL-60; design: method as in PMID 21229880; conditions: cited from earlier work
hRio1 [4] = molecular target: T3, hRio1 (Homo sapiens, UniProt Q9BRS2); assay: Thermofluor (thermal shift) assay, Rio1; assay type: binding; conditions: 100 µM TIBI
T3 construct: Human recombinant kinase Rio1 containing residues 134–494 was expressed and purified as previously reported; made in house
T3 sequence (Q9BRS2 134-494): T2 sequence (Q9BRS2 134-494)
Experimental: The procedure was performed according to the protocol described elsewhere with a few modifications. 10-µl reactions containing 50 mM NaCl, 10 mM Mg^2+, 50 mM Tris–HCl pH 7.5, 1 mg/ml hRio1 or hCK2α, and 100 µM TIBI or 5% DMSO (control) were incubated at 4 °C for 30 min. 10 µl of the SYPRO Orange dye was then added to the reactions. The samples were heated from 4 to 98 °C at a rate of 0.2° per second using a thermal cycler (CFX 1000, Bio-Rad). The changes in fluorescence intensity were measured as the temperature increased. Melting temperatures (T m) of hRio1 and CK2 in the presence and absence of TIBI were calculated using Bio-Rad software. The experiment was performed in duplicate.

human Rio1 [5] = molecular target: T2, human Rio1; assay: Rio1 autophosphorylation assay ([γ-32P]ATP); assay type: biochemical
human Rio1 [6] = molecular target: T2, human Rio1; assay: Steady-state kinetics of Rio1 autophosphorylation (Km for ATP, Vmax) with TIBI; assay type: biochemical
Experimental: Additionally, the same protocol was followed with the addition of TIBI to the reaction mixture at a concentration of 0.01, 0.05, and 0.1 µM.
as §1, §2

hRio1 [7] = molecular target: T3, hRio1; assay: Size-exclusion chromatography of Rio1 (oligomeric state); conditions: 100 µM TIBI, 2 mg/ml hRio1
Experimental: The glass column (200/10 mm) filled with the Sephadex G-200 medium (GE Healthcare) was equilibrated with a buffer containing 10 mM Tris, pH 7.5, 150 mM NaCl, and 6 mM β-mercaptoethanol. In order to calibrate the column, four proteins, namely β-amylase (200 kDa), alcohol dehydrogenase (150 kDa), bovine serum albumin (67 kDa), and ovalbumin (43 kDa), were separately loaded onto the column. 100-µl samples containing 2 mg/ml hRio1 diluted in the equilibration buffer in the presence or absence (control) of 100 µM TIBI were then loaded onto the column. The chromatography was performed at a flow rate 0.2 ml/min using the FPLC system AKTA Purifier 10 (GE Healthcare), and runs were monitored by OD280.

hCK2α [8] = molecular target: T1, hCK2α; assay: Thermofluor (thermal shift) assay, CK2α; assay type: binding; conditions: 100 µM TIBI
Experimental: The procedure was performed according to the protocol described elsewhere with a few modifications. 10-µl reactions containing 50 mM NaCl, 10 mM Mg^2+, 50 mM Tris–HCl pH 7.5, 1 mg/ml hRio1 or hCK2α, and 100 µM TIBI or 5% DMSO (control) were incubated at 4 °C for 30 min. 10 µl of the SYPRO Orange dye was then added to the reactions. […] The changes in fluorescence intensity were measured as the temperature increased. Melting temperatures (T m) of hRio1 and CK2 in the presence and absence of TIBI were calculated using Bio-Rad software. The experiment was performed in duplicate.

hRio1 [9] = molecular target: T3, hRio1; conditions: cited from earlier work
human Rio1 [10] = molecular target: T2, human Rio1; conditions: cited from earlier work

Structure (SMILES) | IC50 (hCK2α [1]) | Ki (hCK2α [1]) | IC50 (human Rio1 [2]) | Ki (human Rio1 [2]) | further results
CN(C)c1nc2c(Br)c(Br)c(Br)c(Br)c2n1C [1Me-DMAT, 4,5,6,7-tetrabromo-N,N,1-trimethylbenzimidazole-2-amine] | 0.39 ± 0.012 µM | 0.167 µM | 0.61 ± 0.02 µM |  | inhibition of CK2 stronger than that of Rio1 (fold) (hCK2α [1]): twofold stronger
O=C(O)c1ccc2c(c1)nc(Nc1cccc(Cl)c1)c1ccncc12 [CX-4945, Silmitasertib, reference compound] |  |  | 0.37 ± 0.011 µM | 0.209 ± 0.008 µM | 
CN(C)c1nc2c(Br)c(Br)c(Br)c(Br)c2[nH]1 [DMAT, 2-dimethylamino-4,5,6,7-tetrabromobenzimidazole, reference compound] |  |  | 0.19 ± 0.009 µM | 0.1 µM | 
Cc1nc2c(I)c(I)c(I)c(I)c2[nH]1 [K92, 4,5,6,7-tetraiodo-2-methylbenzimidazole] | 0.066 ± 0.003 µM | 0.025 ± 0.001 µM | 0.19 ± 0.011 µM | 0.1 ± 0.004 µM | inhibition of CK2 stronger than that of Rio1 (fold) (hCK2α [1]): fourfold stronger
Brc1c(I)c(Br)c2nc[nH]c2c1I [K95, 4,6-dibromo-5,7-diiodobenzimidazole] | 0.3 ± 0.009 µM | 0.128 ± 0.005 µM | 0.29 ± 0.009 µM | 0.164 ± 0.007 µM | 
Brc1c(Br)c(Br)c2[nH]nnc2c1Br [TBB, 4,5,6,7-Tetrabromo-2-azabenzimidazole, reference compound] |  |  | 1.74 ± 0.05 µM | 0.983 ± 0.03 µM | 
Brc1c(Br)c(Br)c2[nH]cnc2c1Br [TBI, 4,5,6,7-tetrabromobenzimidazole] |  |  | 0.33 ± 0.007 µM | 0.186 ± 0.009 µM | 
CC(CC(=O)O)Sc1nc2c(Br)c(Br)c(Br)c(Br)c2[nH]1 (stereo not shown) [TBSB, 3-(4,5,6,7-tetrabromobenzimidazole-2-ylsulfanyl)butanoic acid] | 0.33 ± 0.013 µM | 0.141 ± 0.005 µM | 0.65 ± 0.03 µM | 0.367 ± 0.012 µM | inhibition of CK2 stronger than that of Rio1 (fold) (hCK2α [1]): twofold stronger
Cn1c(SCC(=O)O)nc2c(Br)c(Br)c(Br)c(Br)c21 [TBTS, [(4,5,6,7-tetrabromo-N,N,1-trimethylbenzimidazole-2-yl)sulfanyl]acetic acid] | 0.6 ± 0.03 µM | 0.257 ± 0.009 µM |  | 0.39 ± 0.011 µM | 
Clc1c(Cl)c(Cl)c2[nH]cnc2c1Cl [TCI, 4,5,6,7-tetrachlorobenzimidazole] | 9.7 ± 0.3 µM | 4.15 ± 0.1 µM | 1.9 ± 0.07 µM | 1.07 ± 0.04 µM | 
CC(CC(=O)O)Cn1c(N(C)C)nc2c(Br)c(Br)c(Br)c(Br)c21 (stereo not shown) [TDBB, 3-methyl-4-[4,5,6,7-tetrabromo-2-(dimethylamino)benzimidazole-1-yl]butanoic acid] | 1.51 ± 0.04 µM | 0.647 ± 0.014 µM | 2.17 ± 0.06 µM | 1.23 ± 0.03 µM | 
NCCNc1nc2c(I)c(I)c(I)c(I)c2[nH]1 [TI-2Am, 4,5,6,7-tetraiodobenzimidazole-2-amine-ethylamine] | 0.05 ± 0.002 µM | 0.021 ± 0.001 µM | 0.23 ± 0.01 µM | 0.13 ± 0.005 µM | inhibition of CK2 stronger than that of Rio1 (fold) (hCK2α [1]): ca. sixfold stronger
Ic1c(I)c(I)c2[nH]cnc2c1I [TIBI, 4,5,6,7-tetraiodobenzimidazole] | 0.083 ± 0.003 µM | 0.035 ± 0.001 µM | 0.09 ± 0.005 µM | 0.05 ± 0.002 µM | proapoptotic activity [3]: proapoptotic activity; ΔTm at 100 µM (hRio1 [4]; bound versus unbound, read-out: shift in melting temperature (Tm) of Rio1): 10 °C; melting temperature (Tm) of bound Rio1 (hRio1 [4]; unbound enzyme 58.8 °C): 68.8 °C; IC50 (human Rio1 [5]; IC50 against Rio1 at 0.01 µM ATP, 0.01 µM ATP): 46 nM; IC50 (human Rio1 [5]; IC50 against Rio1 at 0.1 µM ATP, 0.1 µM ATP): 61 nM; IC50 (human Rio1 [5]; IC50 against Rio1 at 1 µM ATP, 1 µM ATP): 101 nM; mode of inhibition of Rio1 (human Rio1 [6]): strict ATP-competitive inhibitors; Vmax of Rio1 in the presence of TIBI (human Rio1 [6]; no shift with increasing TIBI concentration): 0.09 pmol/s; effect on oligomeric state (monomer–tetramer equilibrium) of Rio1 (hRio1 [7]): does not influence the oligomeric state; also recorded: did not observe any changes in the monomer–tetramer equilibrium; ΔTm at 100 µM (hCK2α [8]; bound versus unbound, read-out: shift in melting temperature (Tm) of CK2α): 20 °C; melting temperature (Tm) of TIBI-bound CK2α (hCK2α [8]; unbound enzyme 58.8 °C): 78.8 °C
CN(C)c1nc2c(I)c(I)c(I)c(I)c2n1C [TIdiMe, 2-dimethylamino-1-metyl-4,5,6,7-tetraiodobenzimidazole] | 0.2 ± 0.006 µM | 0.085 ± 0.003 µM | 0.24 ± 0.008 µM | 0.135 ± 0.005 µM | 
N#Cc1cn([C@@H]2O[C@H](CO)[C@@H](O)[C@H]2O)c2ncnc(N)c12 [Toyocamycin, toyocamycin, reference compound] | 54.8 ± 1.9 µM | 23.5 ± 0.8 µM | 3.66 ± 0.09 µM | 2.07 ± 0.07 µM | shift in Tm of human Rio1 bound to toyocamycin (hRio1 [9]): 12.1 °C; mode of inhibition of Rio1 (human Rio1 [10]): mixed inhibition

Reference: article PMC5290066 (Molecular and Cellular Biochemistry, 2016)
